For test [1], the target named is T1, NLRP3 (Homo sapiens, UniProt Q96P20). The test is described as follows: Human whole blood IL1β release assay (LPS + nigericin, AlphaLisa IL-1β; HWB IC50). The arrangement: Human whole blood in Li-heparin tubes was obtained from healthy donors from a volunteer donor panel; from tissue; host or cells: human whole blood from healthy donors. Conditions: IL-1β release. Type of test: cell-based. In a few lines:
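IL-1β in plasma supernatant quantified by AlphaLisa after nigericin (10 μM final, 1 h, 37 °C) triggering of human whole blood that had been preincubated 3 h with LPS (1 μg/ml) plus compound (half-log, 8 points, from 10 μM). IC50 by variable-slope four-parameter regression.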
(In Alpha technology, singlet oxygen from a donor bead excites a nearby acceptor bead.)

In test [2] the target is T1, NLRP3. The test is described as follows: THP-1 cells pyroptosis assay (LPS + nigericin, resazurin readout; THP IC50). The class given is cell-based. Details: Seed THP-1 cells (25,000 cells/well) containing 1.0 μg/ml LPS in 40 μl of RPMI medium; host or cells: THP-1 cells. In a few lines:
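IC50 from 4-parameter fit of resazurin fluorescence (100 μM, 1-2 hrs), reflecting surviving cells after pyroptosis. LPS-primed (1 μg/ml) THP-1 cells in FBS-free RPMI got compound for 3 hrs at 37° C (top 10 μM, half-log, 8 points), then nigericin 5 μM for 1 hr.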
On the technique in general: Resazurin is reduced to fluorescent resorufin, in cell work by metabolically active cells.

The source of these data is patent US20200361895A1, “NOVEL SULFONAMIDE CARBOXAMIDE COMPOUNDS” (Inflazome Limited, priority 2017, published 2020).

The structures appear in SMILES notation. Counter-ions that a name gives are not always drawn.

T1 sequence (Q96P20 whole entry): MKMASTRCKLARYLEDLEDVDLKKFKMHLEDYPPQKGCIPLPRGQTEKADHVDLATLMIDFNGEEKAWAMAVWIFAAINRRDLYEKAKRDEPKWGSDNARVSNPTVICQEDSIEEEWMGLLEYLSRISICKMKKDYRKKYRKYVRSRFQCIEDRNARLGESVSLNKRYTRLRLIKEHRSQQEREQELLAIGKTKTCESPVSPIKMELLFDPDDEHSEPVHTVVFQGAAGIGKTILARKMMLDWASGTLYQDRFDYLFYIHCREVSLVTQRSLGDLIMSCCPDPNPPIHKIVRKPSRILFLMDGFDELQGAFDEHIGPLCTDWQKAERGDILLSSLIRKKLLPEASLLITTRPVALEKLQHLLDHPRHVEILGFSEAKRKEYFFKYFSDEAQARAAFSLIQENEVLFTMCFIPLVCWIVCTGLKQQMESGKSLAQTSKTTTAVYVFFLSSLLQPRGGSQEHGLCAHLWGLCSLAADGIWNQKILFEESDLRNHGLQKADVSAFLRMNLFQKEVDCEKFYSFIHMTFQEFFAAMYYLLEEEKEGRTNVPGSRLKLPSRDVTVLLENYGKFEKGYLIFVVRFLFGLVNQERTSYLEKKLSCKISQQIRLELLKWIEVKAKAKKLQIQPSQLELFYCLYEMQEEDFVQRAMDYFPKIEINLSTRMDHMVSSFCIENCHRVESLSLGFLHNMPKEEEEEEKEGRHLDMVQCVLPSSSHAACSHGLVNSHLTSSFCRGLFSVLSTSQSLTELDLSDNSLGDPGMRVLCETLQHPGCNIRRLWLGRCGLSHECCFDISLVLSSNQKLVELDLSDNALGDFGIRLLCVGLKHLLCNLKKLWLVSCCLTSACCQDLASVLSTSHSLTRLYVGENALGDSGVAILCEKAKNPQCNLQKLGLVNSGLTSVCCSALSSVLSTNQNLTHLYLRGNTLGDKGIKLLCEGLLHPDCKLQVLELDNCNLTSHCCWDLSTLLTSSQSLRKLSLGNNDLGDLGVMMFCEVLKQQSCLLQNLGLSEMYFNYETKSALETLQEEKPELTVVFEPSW

On to `COCCN(CCOC)C(=O)c1cc(S(=O)(=O)NC(=O)Nc2c(-c3ccnc(OC(C)C)c3)cc(F)cc2C(C)C)nn1C` [Example 166, 3-(N-((4-Fluoro-2-(2-isopropoxypyridin-4-yl)-6-isopropyl-phenyl)carbamoyl)sulfamoyl)-N,N-bis(2-methoxyethyl)-1-methyl-1H-pyrazole-5-carboxamide, sodium salt], for which the IC50 (usually the concentration needed to halve the response being measured) on NLRP3 [1] was at most 10000 nM; on NLRP3 [2], at most 5000 nM.
In the case of `COCCN(CCOC)C(=O)c1cc(S(=O)(=O)NC(=O)Nc2c(-c3ccnc(OC)c3)ccc3c2CCC3)nn1C` [Example 167, N,N-Bis(2-methoxyethyl)-3-(N-((5-(2-methoxypyridin-4-yl)-2,3-dihydro-1H-inden-4-yl)carbamoyl)sulfamoyl)-1-methyl-1H-pyrazole-5-carboxamide, sodium salt], the IC50 at NLRP3 [1] and at NLRP3 [2] was at most 500 nM in each case.
Turning to `CC(C)Oc1cc(-c2cc(F)cc(C(C)C)c2NC(=O)NS(=O)(=O)c2cc(C(=O)N(C)C)n(C)n2)ccn1` [Example 168, 3-(N-((4-Fluoro-2-(2-isopropoxypyridin-4-yl)-6-isopropyl-phenyl)carbamoyl)sulfamoyl)-N,N,1-trimethyl-1H-pyrazole-5-carboxamide, sodium salt], the IC50 is at most 5000 nM at NLRP3 [1] and at most 500 nM at NLRP3 [2].
On to `COc1cc(-c2ccc3c(c2NC(=O)NS(=O)(=O)c2cc(C(=O)N(C)C)n(C)n2)CCC3)ccn1` [Example 169, 3-(N-((5-(2-Methoxypyridin-4-yl)-2,3-dihydro-1H-inden-4-yl)carbamoyl)sulfamoyl)-N,N,1-trimethyl-1H-pyrazole-5-carboxamide, sodium salt], for which the IC50 at NLRP3 [1] and on NLRP3 [2] was at most 500 nM each time.
Consider `COc1cc(-c2cc(F)c3c(c2NC(=O)NS(=O)(=O)c2ccn(C4CC4)n2)CCC3)ccn1` [Example 170, 1-Cyclopropyl-N-((7-fluoro-5-(2-methoxypyridin-4-yl)-2,3-dihydro-1H-inden-4-yl)carbamoyl)-1H-pyrazole-3-sulfonamide, sodium salt], for which the figures for the IC50 on NLRP3 [1] and on NLRP3 [2] were at most 1000 nM and at most 500 nM, respectively.
Turning to `COc1cc(-c2cc(C3CC3)c3c(c2NC(=O)NS(=O)(=O)c2ccn(C4CC4)n2)CCC3)ccn1` [Example 171, 1-Cyclopropyl-N-((7-cyclopropyl-5-(2-methoxypyridin-4-yl)-2,3-dihydro-1H-inden-4-yl)carbamoyl)-1H-pyrazole-3-sulfonamide, sodium salt], the results for the IC50 at NLRP3 [1] and at NLRP3 [2] were at most 5000 nM and at most 500 nM, respectively.
On to `COc1cc(-c2cc(F)c3c(c2NC(=O)NS(=O)(=O)c2ccn(C4CCC4)n2)CCC3)ccn1` [Example 172, 1-Cyclobutyl-N-((7-fluoro-5-(2-methoxypyridin-4-yl)-2,3-dihydro-1H-inden-4-yl)carbamoyl)-1H-pyrazole-3-sulfonamide, sodium salt], for which the IC50 was at most 1000 nM at NLRP3 [1] and at most 500 nM on NLRP3 [2].
For `COc1cc(-c2cc(F)c3c(c2NC(=O)NS(=O)(=O)c2ccn(C(C)(C)CN4CCC4)n2)CCC3)ccn1` [Example 173, 1-(1-(Azetidin-1-yl)-2-methylpropan-2-yl)-N-((7-fluoro-5-(2-methoxypyridin-4-yl)-2,3-dihydro-1H-inden-4-yl)carbamoyl)-1H-pyrazole-3-sulfonamide, sodium salt], the IC50 on NLRP3 [1] and on NLRP3 [2] was at most 500 nM in each case.
`COc1cc(-c2ccc3c(c2NC(=O)NS(=O)(=O)CCOC(C)C)CCC3)ccn1` [Example 174, 2-Isopropoxy-N-((5-(2-methoxypyridin-4-yl)-2,3-dihydro-1H-inden-4-yl)carbamoyl)ethanesulfonamide, sodium salt]: the IC50 at NLRP3 [1] was at most 1000 nM; at NLRP3 [2], at most 500 nM.
For the compound `COc1cc(-c2ccc3c(c2NC(=O)NS(=O)(=O)CCOC(C)C)CCO3)ccn1` [Example 175, 2-Isopropoxy-N-((5-(2-methoxypyridin-4-yl)-2,3-dihydrobenzofuran-4-yl)carbamoyl)ethanesulfonamide, sodium salt], the IC50 on NLRP3 [1] and on NLRP3 [2] was at most 500 nM in each case.
For the compound `COc1cc(-c2ccc3c(c2NC(=O)NS(=O)(=O)c2ccc(CN(C)C)nc2)CCC3)ccn1` [Example 176, 6-((Dimethylamino)methyl)-N-((5-(2-methoxypyridin-4-yl)-2,3-dihydro-1H-inden-4-yl)carbamoyl)pyridine-3-sulfonamide], the IC50 at NLRP3 [1] and on NLRP3 [2] was at most 500 nM each time.
With `COc1cc(-c2ccc3c(c2NC(=O)NS(=O)(=O)c2ccnc(CN(C)C)c2)CCC3)ccn1` [Example 177, 2-((Dimethylamino)methyl)-N-((5-(2-methoxypyridin-4-yl)-2,3-dihydro-1H-inden-4-yl)carbamoyl)pyridine-4-sulfonamide, sodium salt], the values for the concentration for half-maximal inhibition (IC50) at NLRP3 [1] and on NLRP3 [2] were at most 1000 nM and at most 500 nM, respectively.
Take `COc1cc(-c2ccc3c(c2NC(=O)NS(=O)(=O)c2ccnc(C(C)C)c2)CCC3)ccn1` [Example 178, 2-Isopropyl-N-((5-(2-methoxypyridin-4-yl)-2,3-dihydro-1H-inden-4-yl)carbamoyl)pyridine-4-sulfonamide, sodium salt]: the figures for the IC50 on NLRP3 [1] and at NLRP3 [2] were at most 5000 nM and at most 500 nM, respectively.
Take `CC(C)n1ccc(S(=O)(=O)NC(=O)Nc2c(-c3cccnc3)ccc3c2CCCC3)n1` [Example 179, 1-Isopropyl-N-((2-(pyridin-3-yl)-5,6,7,8-tetrahydronaphthalen-1-yl)carbamoyl)-1H-pyrazole-3-sulfonamide]: the IC50 at NLRP3 [1] and on NLRP3 [2] was at most 5000 nM in each case.
For the compound `COc1cc(-c2ccc3c(c2NC(=O)NS(=O)(=O)c2ccn(C(C)(C)CN4CC(OC)C4)n2)CCC3)ccn1` [Example 180, 1-(1-(3-Methoxyazetidin-1-yl)-2-methylpropan-2-yl)-N-((5-(2-methoxypyridin-4-yl)-2,3-dihydro-1H-inden-4-yl)carbamoyl)-1H-pyrazole-3-sulfonamide], the IC50 at NLRP3 [1] and on NLRP3 [2] was at most 500 nM throughout.
In the case of `N#Cc1cc(-c2ccc3c(c2NC(=O)NS(=O)(=O)c2ccn(C4CCOC4)n2)CCC3)ccn1` (stereo not drawn) [Example 181, N-((5-(2-Cyanopyridin-4-yl)-2,3-dihydro-1H-inden-4-yl)carbamoyl)-1-(tetrahydrofuran-3-yl)-1H-pyrazole-3-sulfonamide, sodium salt], the IC50 on NLRP3 [1] and at NLRP3 [2] was at most 500 nM throughout.
For the compound `C[C@@H](O)Cn1ccc(S(=O)(=O)NC(=O)Nc2c(-c3ccnc(C#N)c3)ccc3c2CCC3)n1` [Example 182, (R)-N-((5-(2-Cyanopyridin-4-yl)-2,3-dihydro-1H-inden-4-yl)carbamoyl)-1-(2-hydroxypropyl)-1H-pyrazole-3-sulfonamide, sodium salt], the IC50 at NLRP3 [1] and on NLRP3 [2] was at most 500 nM each time.
As for `CC(C)(O)Cn1ccc(S(=O)(=O)NC(=O)Nc2c(-c3ccnc(C#N)c3)ccc3c2CCC3)n1` [Example 183, N-((5-(2-Cyanopyridin-4-yl)-2,3-dihydro-1H-inden-4-yl)carbamoyl)-1-(2-hydroxy-2-methylpropyl)-1H-pyrazole-3-sulfonamide, sodium salt], the IC50 at NLRP3 [1] and on NLRP3 [2] was at most 500 nM in each case.
With `COc1cc(-c2ccc3c(c2NC(=O)NS(=O)(=O)c2ccn(C[C@@H](C)O)n2)CCC3)ccn1` [Example 184, (R)-1-(2-Hydroxypropyl)-N-((5-(2-methoxypyridin-4-yl)-2,3-dihydro-1H-inden-4-yl)carbamoyl)-1H-pyrazole-3-sulfonamide], the IC50 at NLRP3 [1] and at NLRP3 [2] was at most 500 nM throughout.
On to `COc1cc(-c2ccc3c(c2NC(=O)NS(=O)(=O)c2ccn(CC(C)(C)OC)n2)CCC3)ccn1` [Example 185, 1-(2-Methoxy-2-methylpropyl)-N-((5-(2-methoxypyridin-4-yl)-2,3-dihydro-1H-inden-4-yl)carbamoyl)-1H-pyrazole-3-sulfonamide], for which the IC50 at NLRP3 [1] and on NLRP3 [2] was at most 500 nM throughout.
Take `COc1cc(-c2ccc3c(c2NC(=O)NS(=O)(=O)c2ccn(CC(C)(C)O)n2)CCC3)ccn1` [Example 186, 1-(2-Hydroxy-2-methylpropyl)-N-((5-(2-methoxypyridin-4-yl)-2,3-dihydro-1H-inden-4-yl)carbamoyl)-1H-pyrazole-3-sulfonamide]: the IC50 at NLRP3 [1] and on NLRP3 [2] was at most 500 nM in each case.
For `COc1cc(-c2ccc3c(c2NC(=O)NS(=O)(=O)c2ccn(C4CCOC4)n2)CCC3)ccn1` (stereo not drawn) [Example 187, N-((5-(2-Methoxypyridin-4-yl)-2,3-dihydro-1H-inden-4-yl)carbamoyl)-1-(tetrahydrofuran-3-yl)-1H-pyrazole-3-sulfonamide], the IC50 on NLRP3 [1] and at NLRP3 [2] was at most 500 nM each time.
Take `COc1cc(-c2ccc3c(c2NC(=O)NS(=O)(=O)c2cc(C4(OC)COC4)n(C)n2)CCC3)ccn1` [Example 188, 5-(3-Methoxyoxetan-3-yl)-N-((5-(2-methoxypyridin-4-yl)-2,3-dihydro-1H-inden-4-yl)carbamoyl)-1-methyl-1H-pyrazole-3-sulfonamide]: the IC50 at NLRP3 [1] and at NLRP3 [2] was at most 500 nM each time.
For the compound `COc1cc(-c2ccc3c(c2NC(=O)NS(=O)(=O)c2ccn(C(C)(C)C(=O)N(C)C)n2)CCC3)ccn1` [Example 189, 2-(3-(N-((5-(2-Methoxypyridin-4-yl)-2,3-dihydro-1H-inden-4-yl)carbamoyl)sulfamoyl)-1H-pyrazol-1-yl)-N,N,2-trimethylpropanamide], the IC50 on NLRP3 [1] and on NLRP3 [2] was at most 500 nM throughout.
